# Test results as given in US9138659B2, “Compositions, methods, and systems relating to controlled crystallization and/or nucleation of molecular species” (Massachusetts Institute of Technology, priority 2010, dated 2015).
# Assay: Equilibrium partitioning of ASA / ACM into PEGDA and PEGDA-co-AM gels
# Format: physicochemical
# Procedure: This theory is exemplified by quantifying the partitioning of aspirin between the PEGDA gel phase and 38/62 ethanol/water (v/v), and determining the concentration of aspirin in the hydrogel particles. The partitioning experiments were performed at the same solution concentration and temperature as in the nucleation induction time experiments. In the partitioning experiment, both the concentrations of aspirin and ethanol were measured, as there are three species in the bulk solution, namely aspirin, ethanol and water, all of which partition in the gel phase to a certain degree determined by their relative interaction with the PEGDA polymer matrix.
# Composition of aspirin solution in the PEGDA gel phase were compared with the bulk phase. PEGDA gels sufficiently large for convenient handling were synthesized by UV polymerization, following the same formulation as the synthesis of PEGDA particles used in the crystallization study. The PEGDA gels were washed with ethanol and vacuum dried to remove unreacted species. The gel was then immersed in excessive 38 mg/ml aspirin solution in 38/62 ethanol/water (v/v) and allowed sufficient time to reach equilibrium swelling at 15° C. before taken out, pad dried, and put in excessive water. After 5 hours immersed in water, the concentrations of aspirin and ethanol in the aqueous phase were analyzed by UV-Vis spectroscopy and Gas Chromatography, respectively.
# In FIG. 10: Partitioning of aspirin vs. acetaminophen in the PEGDA gel. Y axis represents the relative API concentration in the PEGDA, normalized by the bulk concentration. The aspirin partitioning experiment was conducted in 38 mg/ml aspirin solution in 38/62 ethanol/water (v/v) at 15° C. As for acetaminophen, 95 mg/ml acetaminophen solution in 38/62 ethanol/water (v/v) was used and the equilibration temperature was 8° C. In both cases, the experimental conditions were kept the same as used in the nucleation induction time study.
# Quantification of polymer-solute interactions: The strength of intermolecular interactions between the PEGDA-co-AM polymer network and the molecule to crystallize was characterized with the solute equilibrium partition coefficient at the same condition as used in the crystallization study. Solute partition coefficient κ, defined as the ratio of solute mass fraction in solution confined in the gel to that in the bulk, is a relevant parameter because it informs the solute concentration in the gel at the crystallization condition, which is an important factor affecting nucleation. […] The PEGDA polymers are comprised of the PEG subchain and the acrylate crosslinkers.
# Partition coefficient measurements: Partition coefficients of ASA in PEGDA-co-AM gels from its bulk solution were determined as follows. In brief, a series of gels with varying mesh sizes of approximately 5 mm in diameter and 0.5 mm in thickness were synthesized via UV polymerization following the same formula as used in the microgel synthesis. The residue solvent, porogen and monomer molecules were removed by extensive washing with solvent ethanol and subsequent vacuum drying. The dry gels were then immersed in excessive volume of 38 mg/ml ASA solution in 38/62 (v/v) ethanol/water at 15° C. for overnight.
smiles,measurement,setting,value
CC(=O)Oc1ccccc1C(=O)O [aspirin],increase of κ after introducing AM into the PEGDA gel,"ASA, on average",60%
same,molar ratio of ethylene oxide units in PEG to ASA,"PEGDA gels, all mesh sizes, calculated from the partition experiments",7.7
same,AM to ASA molar ratio,PEGDA-co-AM gels,around unity
same,ASA concentration in the PEGDA-co-AM gels relative to bulk solution,PEGDA-co-AM gels,as high as six times
same,aspirin concentration in PEGDA particles with respect to the bulk,"all PEGDA particles, 38 mg/ml in 38/62 ethanol/water, 15° C",more than three times
